# Test results from publication PMC12519234 (2025).
# How the values were obtained:
# [1] = system: queT (41 nt) (RNA, riboswitch) ACGUGGUUCAUUCAUACCAUCCCACGUAAAAAAACUAGGAG; assay: 1H NMR imino spectra; details: 25 mM NaCl, 2 mM MgCl2; 15 mM sodium cacodylate pH 6.5, 25 °C, 0.15 mM RNA
# [2] = system: Tte preQ1 U22Ap (RNA, riboswitch, 2-aminopurine at 22 (replaces U)) CUGGGUCGCAGUAACCCCAGUUAACAAAACAAG; assay: stopped-flow 2-aminopurine fluorescence; koff = kon × KD; details: 100 mM KCl, 2 mM MgCl2; 50 mM MOPS pH 7.5, 25 °C; calculated, one approximate value for preQ1 and 4a
# [3] = system: Tte preQ1 U22Ap (RNA, riboswitch, 2-aminopurine at 22 (replaces U)) CUGGGUCGCAGUAACCCCAGUUAACAAAACAAG; assay: 2-aminopurine fluorescence titration; details: 100 mM KCl, 2 mM MgCl2; 50 mM MOPS pH 7.5, 25 °C, 0.5 µM RNA
# [4] = system: preQ1-like (40 nt, lmo2684 upstream region) (RNA, mRNA element) UACAGCUAGCUAGCUGAAAAUUAUAAAAAACUAAAGAGGU; assay: 1H NMR imino spectra; details: 25 mM NaCl, 2 mM MgCl2; 15 mM sodium cacodylate pH 6.5, 25 °C, 0.15 mM RNA; no high affinity association
# [5] = system: Tte preQ1 U22Ap (RNA, riboswitch, 2-aminopurine at 22 (replaces U)) CUGGGUCGCAGUAACCCCAGUUAACAAAACAAG; assay: stopped-flow 2-aminopurine fluorescence; details: 100 mM KCl, 2 mM MgCl2; 50 mM MOPS pH 7.5, 25 °C
smiles,measurement,setting,value
NCc1c[nH]c2nc(N)[nH]c(=O)c12,binding,[1],yes
same,koff,[2],~ 7.5 × 10^−4 s^−1
same,KD(preQ1),[3],0.064 µM
same,binding,[4],no
same,kon(preQ1),[5],13000 M⁻¹ s⁻¹
